Source: PMC4126480, “Evaluation of drug interaction potential of Labisia pumila (Kacip Fatimah) and its constituents” (Frontiers in Pharmacology, 2014)

Tests used:
[1] = Estimation of concentration per dose, GIT and plasma concentrations (560 mg KF extract dose); set-up: species or system human; settings: for Estimated concentration per dose: 560 mg KF extract, single dose, from % yield; for Estimated GIT concentration / Estimated Plasma concentration: 560 mg dose; for Estimated GIT concentration: human GIT volume 250 mL; for Estimated Plasma concentration: Table 2, plasma volume 3 L, 100% bioavailable assumed
Description: All assumptions to predict the HDI potential of KF methanolic extract and its constituents were according to previously published report ([Awortwe et al., 2014]). The % yield was calculated from the amounts extracted from the KF roots ([Ali and Khan, 2011]). The human GIT volume is 250 mL and plasma volume is about 3 L. The commonly used maximum dose of KF extract capsules is 560 mg per day ([Abdul Kadir et al., 2012]) and accordingly we estimated the concentration per dose, GIT, and plasma concentrations of extract and its constituents. We then compared the in vitro IC50 values obtained from recombinant CYPs with estimated GIT and plasma concentrations. If the IC50 values were lower than the GIT or plasma concentration, then the test compound or extract is likely to cause HDI in vivo.

P-gp [2] = molecular target: T1, P-gp (Homo sapiens, UniProt P08183); assay: P-gp inhibition by 3H-digoxin basolateral to apical transport in hMDR1-MDCK-II cells
Description: The cells were seeded at a density of 120,000 cells/well in 12-well Transwell plates and cultured for 3 days. […] Cells were washed with warm HBSS buffer supplemented with 10 mM HEPES (pH 7.4) and pre-incubated with 0.5 mL of buffer containing test samples (six concentrations) on the apical side and 1.5 mL of buffer on the basolateral side for 30 min (37 °C, 5% CO2, and 95% relative humidity). […] Aliquots of 25 μL were taken out from the apical side, mixed with 100 μL of scintillant (Microscint TM-40, PerkinElmer) and radioactive counts were measured on a TopCount microplate scintillation counter (PerkinElmer, Waltham, MA, USA) in CPM mode.
The inhibition of the basolateral to apical (B-A) transport of digoxin by test samples was calculated compared to the vehicle control.

PXR = molecular target: T2, PXR (Homo sapiens, UniProt O75469); assay: Inhibition of rifampicin-induced PXR activity, reporter gene assay in HepG2 cells; assay type: cell-based; settings: extract 3–30 μg/mL, saponins 3–30 μM
T2 construct: expressed in transfected cells; host or cells: HepG2 cells, transient electroporation with pSG5-PXR and the CYP3A4-PXRE-LUC reporter
T2 sequence (O75469 1-434): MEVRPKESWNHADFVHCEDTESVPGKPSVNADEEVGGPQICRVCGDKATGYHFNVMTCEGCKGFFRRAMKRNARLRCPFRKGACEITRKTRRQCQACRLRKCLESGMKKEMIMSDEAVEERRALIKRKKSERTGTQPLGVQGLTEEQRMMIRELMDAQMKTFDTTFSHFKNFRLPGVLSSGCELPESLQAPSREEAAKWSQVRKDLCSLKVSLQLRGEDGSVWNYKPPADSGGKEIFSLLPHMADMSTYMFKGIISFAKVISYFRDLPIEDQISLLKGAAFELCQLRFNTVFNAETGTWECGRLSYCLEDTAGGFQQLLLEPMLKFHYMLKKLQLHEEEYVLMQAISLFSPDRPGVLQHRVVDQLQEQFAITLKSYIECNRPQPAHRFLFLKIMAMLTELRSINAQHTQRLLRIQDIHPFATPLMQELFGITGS
Description: The pSG5-hPXR expression vector was provided generously by Dr. Steven Kliewer (University of Texas Southwestern Medical Center, Dallas, TX, USA; [Lehmann et al., 1998]) and the reporter plasmid CYP3A4-PXR response element (PXRE)-LUC (containing the proximal 0/–362 and distal 7208/7797 PXRE regions fused upstream of luciferase; [Goodwin et al., 1999]) was a kind gift from Dr. Christopher Liddle (University of Sydney, Westmead, NSW, Australia). The modulation of PXR activity by test samples was determined in HepG2 cells transiently transfected with pSG5-PXR (25 μg) and PCR5 plasmid DNA (25 μg) by electroporation at 180 V, 1 pulse for 70 msec. The cells were plated in 96-well plates at a density of 50,000 cells per well. […] After additional 24 hour incubation, the media was aspirated and 40 μL of luciferase reagent (Promega Corporation, Madison, WI, USA) was added to each well and luminescence was measured on Spectramax M5 plate reader (Molecular Devices, Sunnyvale, CA, USA). The fold induction in luciferase activity in the treated cells was calculated in comparison to vehicle treated cells. The cytotoxicity of test samples toward HepG2 cells was also determined by measuring the cell viability using the CellTiter 96 AQueous One Solution Cell Proliferation Assay (MTS) as described earlier ([Manda et al., 2013]).

P-gp [3] = molecular target: T1, P-gp; assay: P-gp inhibition by calcein-AM uptake in hMDR1-MDCK-II cells
Description: Cells were seeded in 96-well plates at 70,000 cells/well in 200 μL of culture medium. The medium was changed at 24 h after seeding and the assay was performed 48 h later.

[4] = tested on: hMDR1-MDCK-II cell monolayers; assay: Monolayer integrity: permeability of Lucifer yellow; assay type: in vitro ADME, canine; settings: paracellular marker
Description: The cells were seeded at a density of 120,000 cells/well in 12-well Transwell plates and cultured for 3 days. TEER values were in the range of 500–800 Ω cm^2. Cells were washed with warm HBSS buffer supplemented with 10 mM HEPES (pH 7.4) and pre-incubated with 0.5 mL of buffer containing test samples (six concentrations) on the apical side and 1.5 mL of buffer on the basolateral side for 30 min (37 °C, 5% CO2, and 95% relative humidity).

T1 sequence (P08183 whole entry): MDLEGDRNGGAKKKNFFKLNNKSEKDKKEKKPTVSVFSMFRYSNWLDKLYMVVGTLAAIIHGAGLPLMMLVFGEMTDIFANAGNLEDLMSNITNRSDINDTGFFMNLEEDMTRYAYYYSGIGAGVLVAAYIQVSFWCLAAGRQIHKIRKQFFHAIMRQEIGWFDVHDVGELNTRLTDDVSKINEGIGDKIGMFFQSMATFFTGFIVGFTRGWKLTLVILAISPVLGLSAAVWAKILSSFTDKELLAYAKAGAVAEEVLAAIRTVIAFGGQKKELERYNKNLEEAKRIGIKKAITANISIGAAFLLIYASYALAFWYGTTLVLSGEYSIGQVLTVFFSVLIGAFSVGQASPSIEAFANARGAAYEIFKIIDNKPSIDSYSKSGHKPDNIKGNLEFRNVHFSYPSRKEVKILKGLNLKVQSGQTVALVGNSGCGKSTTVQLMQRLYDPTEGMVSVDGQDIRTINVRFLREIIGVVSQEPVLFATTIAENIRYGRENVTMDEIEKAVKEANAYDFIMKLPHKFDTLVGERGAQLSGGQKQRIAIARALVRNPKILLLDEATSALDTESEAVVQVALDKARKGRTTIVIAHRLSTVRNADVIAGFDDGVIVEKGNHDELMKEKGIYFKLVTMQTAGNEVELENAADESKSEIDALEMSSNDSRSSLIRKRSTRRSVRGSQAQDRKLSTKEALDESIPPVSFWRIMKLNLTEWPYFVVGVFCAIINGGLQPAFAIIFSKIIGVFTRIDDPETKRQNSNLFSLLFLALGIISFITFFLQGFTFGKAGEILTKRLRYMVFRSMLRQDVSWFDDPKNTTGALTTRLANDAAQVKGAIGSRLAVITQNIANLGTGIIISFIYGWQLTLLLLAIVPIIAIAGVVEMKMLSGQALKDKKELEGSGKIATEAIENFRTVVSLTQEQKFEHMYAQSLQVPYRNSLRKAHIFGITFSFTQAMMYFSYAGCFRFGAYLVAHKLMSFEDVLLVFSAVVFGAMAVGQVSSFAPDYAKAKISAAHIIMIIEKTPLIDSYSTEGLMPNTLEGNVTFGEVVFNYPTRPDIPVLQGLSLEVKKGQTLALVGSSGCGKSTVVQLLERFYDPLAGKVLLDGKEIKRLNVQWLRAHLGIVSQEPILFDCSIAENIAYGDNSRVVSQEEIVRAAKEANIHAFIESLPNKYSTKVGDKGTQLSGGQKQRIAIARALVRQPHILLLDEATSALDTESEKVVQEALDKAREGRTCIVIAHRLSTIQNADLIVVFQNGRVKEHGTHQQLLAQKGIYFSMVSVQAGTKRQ

Compound | Estimated concentration per dose [1] [mg/mL] | Estimated GIT concentration [1] [µg/mL] | Estimated Plasma concentration [1] [µg/mL] | IC50 (P-gp [2]) [µM] | Effect on rifampicin-induced PXR activity (PXR) | EC50 (P-gp [3]) [µM] | Papp value [4]
C[C@@H]1O[C@@H](O[C@H]2[C@H](O[C@H]3CO[C@@H](O[C@H]4CC[C@]5(C)[C@H]6CC[C@]78OC[C@@]9(CC[C@](C)(C=O)C[C@H]97)C(=O)C[C@@]8(C)[C@]6(C)CC[C@H]5C4(C)C)[C@H](O)[C@H]3O)O[C@H](CO)[C@@H](O)[C@@H]2O)[C@H](O)[C@H](O)[C@H]1O [Ardisimamilloside H] | 0.011 | 0.047 | 0.003 | 4.2 ± 1.1 | dose dependently decreased | 42 ± 3.5 | –
Lucifer yellow [LY] | – | – | – | – | – | – | 1.1 ± 0.8 × 10^-6 cm/s
CC1(C)[C@@H](O[C@@H]2OC[C@H](O[C@@H]3O[C@H](CO)[C@@H](O)[C@H](O)[C@H]3O[C@@H]3OC[C@@H](O)[C@H](O)[C@H]3O)[C@H](O)[C@H]2O)CC[C@]2(C)[C@H]3CC[C@]45OC[C@@]6(CC[C@](C)(C=O)C[C@H]64)[C@H](O)C[C@@]5(C)[C@]3(C)CC[C@@H]12 [Primulanin] | 0.07 | 0.31 | 0.026 | 6.4 ± 2.3 | dose dependently decreased | 34 ± 2.3 | –
